Data as given in patent publication US8940739B2, “Compound of a reverse-turn mimetic and a production method and use therefor” (JW Pharmaceutical Corporation, priority 2010, dated 2015).

These molecules were tested against cDNA-expressed human hepatic CYP3A4 (Homo sapiens (Human), UniProt P08684) (assay: Measurement of CYP (IC50 of P450 CYP3A4), BFC substrate). Conditions: 20 minutes.
Format: in vitro ADME
Experimental: The compounds of the present invention had lower P450 CYP3A4 inhibitory activity (higher IC50). Lower CYP3A4 inhibitory activity means that the compounds of the present invention cause fewer side-effects from the pharmacological point of view.
This assay was performed in a 200 l volume in 96-well microtiter plates using cDNA-expressed human hepatic CYP3A4 (supersome, BD Gentest™ #456202). As a substrate for CYP3A4, 7-benzyloxy-4-trifluoromethyl-coumarin (BFC) was used. The compounds of Examples 1 to 5 and the substrate BFC were dissolved in 100% acetonitrile. The final volume of acetonitrile of the incubation mixture was less than 1% (volume/volume). A potassium phosphate buffer (pH 7.4, final concentration 0.1M), MgCl2 (final concentration 8.3 mM), EDTA (final concentration 1.67 mM), an inventive compound stock solution, CYP3A4 supersome, and NADPH (final concentration 0.25 mM) were added to each well. The reaction was initiated by adding the substrate (BFC, final concentration 30 µM) at 37. The incubation was performed for 20 minutes and then the reaction was terminated by the addition of 75 μl of acetonitrile: 0.5 M tris-base=4:1 (volume/volume).
Then, a fluorescent signal was measured using a fluorometer. A BFC metabolite, 7-hydroxy-4-trifluoromethyl-coumarin, was measured using an excitation wavelength of 409 nm and an emission wavelength of 530 nm.

cDNA-expressed human hepatic CYP3A4, sequence (P08684 whole entry): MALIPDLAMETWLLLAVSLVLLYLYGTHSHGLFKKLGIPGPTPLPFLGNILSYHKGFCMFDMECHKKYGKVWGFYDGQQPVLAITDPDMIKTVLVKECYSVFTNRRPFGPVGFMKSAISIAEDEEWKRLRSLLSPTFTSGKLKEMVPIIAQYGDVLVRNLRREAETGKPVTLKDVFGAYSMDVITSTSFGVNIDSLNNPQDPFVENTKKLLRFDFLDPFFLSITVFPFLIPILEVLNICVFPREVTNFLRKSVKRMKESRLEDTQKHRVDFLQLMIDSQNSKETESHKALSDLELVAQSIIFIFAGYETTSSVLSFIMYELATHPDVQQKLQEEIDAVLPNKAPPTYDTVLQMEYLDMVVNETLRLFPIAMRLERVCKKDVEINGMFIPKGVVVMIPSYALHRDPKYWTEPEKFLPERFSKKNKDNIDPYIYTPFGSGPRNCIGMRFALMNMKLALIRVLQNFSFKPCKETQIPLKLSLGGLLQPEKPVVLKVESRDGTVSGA

SMILES | IC50 [µM]
C=CCN1CC(=O)N2[C@@H](Cc3ccc(O)cc3)C(=O)N(Cc3cccc4c(C(=O)N5CCC(C(=O)N(C)CCN(C)C)CC5)cn(C)c34)C[C@@H]2N1C(=O)NCc1ccccc1 [Compound E-54] | 4.97
C=CCN1CC(=O)N2[C@@H](Cc3ccc(O)cc3)C(=O)N(Cc3cccc4c(C(=O)N5CCC(NC(=O)c6ccc(N7CCN(C)CC7)cc6)CC5)cn(C)c34)C[C@@H]2N1C(=O)NCc1ccccc1 [Compound E-60] | 6.02
C=CCN1CC(=O)N2[C@@H](Cc3ccc(O)cc3)C(=O)N(Cc3cccc4c(C(=O)N5CC6CCN(C)C6C5)cn(C)c34)C[C@@H]2N1C(=O)NCc1ccccc1 (some centres unmarked) [Compound E-68] | 2.45
C=CCN1CC(=O)N2[C@@H](Cc3ccc(O)cc3)C(=O)N(Cc3cccc4c(-c5ccc(NC(=O)c6ccc(N(CC)CC)cc6)cc5)cn(C)c34)C[C@@H]2N1C(=O)NCc1ccccc1 [Compound D-57] | > 25
C=CCN1CC(=O)N2[C@@H](Cc3ccc(O)cc3)C(=O)N(Cc3cccc4c(C(=O)N5CCCN(C)CC5)cn(C)c34)C[C@@H]2N1C(=O)NCc1ccccc1 [Compound E-42] | 3.63
C=CCN1CC(=O)N2[C@@H](Cc3ccc(O)cc3)C(=O)N(Cc3cccc4c(C(=O)N5CC(O)C5)cn(C)c34)C[C@@H]2N1C(=O)NCc1ccccc1 [Compound E-70] | 18.3
C=CCN1CC(=O)N2[C@@H](Cc3ccc(O)cc3)C(=O)N(Cc3cccc4c(-c5ccc(NC(=O)CCCCCCC)cc5)cn(C)c34)C[C@@H]2N1C(=O)NCc1ccccc1 [Compound D-52] | 21.7
C=CCN1CC(=O)N2[C@@H](Cc3ccc(O)cc3)C(=O)N(Cc3cccc4c(-c5ccc(C(=O)Nc6cccc(OCc7ccccc7)c6)cc5)cn(C)c34)C[C@@H]2N1C(=O)NCc1ccccc1 [Compound D-20] | 17.2
C=CCN1CC(=O)N2[C@@H](Cc3ccc(O)cc3)C(=O)N(Cc3cccc4c(C(=O)N5CCN(CCN6CCCCC6)CC5)cn(C)c34)C[C@@H]2N1C(=O)NCc1ccccc1 [Compound E-24] | 5.53
C=CCN1CC(=O)N2[C@@H](Cc3ccc(O)cc3)C(=O)N(Cc3cccc4c(C(=O)N5CCN6CCN(C(C)=O)CC6C5)cn(C)c34)C[C@@H]2N1C(=O)NCc1ccccc1 (some centres unmarked) [Compound E-44] | 15
C=CCN1CC(=O)N2[C@@H](Cc3ccc(O)cc3)C(=O)N(Cc3cccc4c(C(=O)N5CCN6CCN(C=O)CC6C5)cn(C)c34)C[C@@H]2N1C(=O)NCc1ccccc1 (some centres unmarked) [Compound E-48] | 12.1
C=CCN1CC(=O)N2[C@@H](Cc3ccc(O)cc3)C(=O)N(Cc3cccc4c(C(=O)N5CCC6CN(C)CC65)cn(C)c34)C[C@@H]2N1C(=O)NCc1ccccc1 (some centres unmarked) [Compound E-69] | 4.49
C=CCN1CC(=O)N2[C@@H](Cc3ccc(O)cc3)C(=O)N(Cc3cccc4c(-c5ccc(NC(=O)CCCNCCC(C)=O)cc5)cn(C)c34)C[C@@H]2N1C(=O)NCc1ccccc1 [Compound D-72] | 2.78
C=CCN1CC(=O)N2[C@@H](Cc3ccc(O)cc3)C(=O)N(Cc3cccc4c(C(=O)NN5CCN(c6ccccn6)CC5)cn(C)c34)C[C@@H]2N1C(=O)NCc1ccccc1 [Compound E-38] | 2.48
C=CCN1CC(=O)N2[C@@H](Cc3ccc(O)cc3)C(=O)N(Cc3cccc4c(C(=O)N5CCN(CC6CCCC6)CC5)cn(C)c34)C[C@@H]2N1C(=O)NCc1ccccc1 [Compound E-21] | > 25
C=CCN1CC(=O)N2[C@@H](Cc3ccc(O)cc3)C(=O)N(Cc3cccc4c(C(=O)N5CCC(O)CC5)cn(C)c34)C[C@@H]2N1C(=O)NCc1ccccc1 [Compound E-51] | 10.7
C=CCN1CC(=O)N2[C@@H](Cc3ccc(O)cc3)C(=O)N(Cc3cccc4c(C(=O)N5CCN(C(C)=O)CC5)cn(C)c34)C[C@@H]2N1C(=O)NCc1ccccc1 [Compound E-14] | 10.9
C=CCN1CC(=O)N2[C@@H](Cc3ccc(O)cc3)C(=O)N(Cc3cccc4c(C(=O)N5CCN(C6CCN(C)CC6)CC5)cn(C)c34)C[C@@H]2N1C(=O)NCc1ccccc1 [Compound E-64] | 8.55
C=CCN1CC(=O)N2[C@@H](Cc3ccc(O)cc3)C(=O)N(Cc3cccc4c(C(=O)N5CCN(CCCCO)CC5)cn(C)c34)C[C@@H]2N1C(=O)NCc1ccccc1 [Compound E-12] | 9.3
C=CCN1CC(=O)N2[C@@H](Cc3ccc(O)cc3)C(=O)N(Cc3cccc4c(C(=O)N5CCC(NC(=O)CCO)CC5)cn(C)c34)C[C@@H]2N1C(=O)NCc1ccccc1 [Compound E-57] | 7.65
C=CCN1CC(=O)N2[C@@H](Cc3ccc(O)cc3)C(=O)N(Cc3cccc4c(C(=O)N5CCN6CCN(CC)CC6C5)cn(C)c34)C[C@@H]2N1C(=O)NCc1ccccc1 (some centres unmarked) [Compound E-50] | 5.04
C=CCN1CC(=O)N2[C@@H](Cc3ccc(O)cc3)C(=O)N(Cc3cccc4c(C(=O)N5CCN(S(C)(=O)=O)CC5)cn(C)c34)C[C@@H]2N1C(=O)NCc1ccccc1 [Compound E-15] | 11.2

Continued, values first:

IC50 [µM] | SMILES
17.4 | C=CCN1CC(=O)N2[C@@H](Cc3ccc(O)cc3)C(=O)N(Cc3cccc4c(C(=O)NN5CCCC5)cn(C)c34)C[C@@H]2N1C(=O)NCc1ccccc1 [Compound F-56]
2.55 | C=CCN1CC(=O)N2C(CN(Cc3cccc4c(C(=O)Nc5ccc(NCC(O)CO)nc5)cn(C)c34)C(=O)[C@@H]2Cc2ccc(O)cc2)N1C(=O)NCc1ccccc1 (some centres unmarked) [Compound G-21]
2.39 | C=CCN1CC(=O)N2[C@@H](Cc3ccc(O)cc3)C(=O)N(Cc3cccc4c(C(=O)NN5CCN(C6CCCC6)CC5)cn(C)c34)C[C@@H]2N1C(=O)NCc1ccccc1 [Compound F-59]
5.8 | C=CCN1CC(=O)N2C(CN(Cc3cccc4c(C(=O)Nc5ccc(NCCN6CCC(O)CC6)nc5)cn(C)c34)C(=O)[C@@H]2Cc2ccc(O)cc2)N1C(=O)NCc1ccccc1 (some centres unmarked) [Compound G-29]
4.05 | C=CCN1CC(=O)N2C(Cc3ccc(O)cc3)C(=O)N(Cc3cccc4c(C(=O)Nc5ccc(NCCN(C(C)C)C(C)C)nc5)cn(C)c34)CC2N1C(=O)NCc1ccccc1 (centres unmarked) [Compound G-25]
6.87 | C=CCN1CC(=O)N2[C@@H](Cc3ccc(O)cc3)C(=O)N(Cc3cccc4c(C(=O)NC5CCN(C(=O)CCO)CC5)cn(C)c34)C[C@@H]2N1C(=O)NCc1ccccc1 [Compound F-65]
3.58 | C=CCN1CC(=O)N2[C@@H](Cc3ccc(O)cc3)C(=O)N(Cc3cccc4c(C(=O)NCCC(=O)OCC)cn(C)c34)C[C@@H]2N1C(=O)NCc1ccccc1 [Compound F-22]
9.71 | C=CCN1CC(=O)N2[C@@H](Cc3ccc(O)cc3)C(=O)N(Cc3cccc4c(C(=O)NC5CCN(CCCO)CC5)cn(C)c34)C[C@@H]2N1C(=O)NCc1ccccc1 [Compound F-63]
22.3 | C=CCN1CC(=O)N2[C@@H](Cc3ccc(O)cc3)C(=O)N(Cc3cccc4c(C(=O)NN5CCOCC5)cn(C)c34)C[C@@H]2N1C(=O)NCc1ccccc1 [Compound F-58]
4.53 | C=CCN1CC(=O)N2C(CN(Cc3cccc4c(C(=O)Nc5ccc(NCCN(CC)CC)nc5)cn(C)c34)C(=O)[C@@H]2Cc2ccc(O)cc2)N1C(=O)NCc1ccccc1 (some centres unmarked) [Compound G-24]
16.2 | C=CCN1CC(=O)N2[C@@H](Cc3ccc(O)cc3)C(=O)N(Cc3cccc4c(C(=O)NCCCO)cn(C)c34)C[C@@H]2N1C(=O)NCc1ccccc1 [Compound F-4]
2.48 | C=CCN1CC(=O)N2[C@@H](Cc3ccc(O)cc3)C(=O)N(Cc3cccc4c(C(=O)N(C)CCn5ccnc5C)cn(C)c34)C[C@@H]2N1C(=O)NCc1ccccc1 [Compound F-36]
6.15 | C=CCN1CC(=O)N2[C@@H](Cc3ccc(O)cc3)C(=O)N(Cc3cccc4c(C(=O)NNCC(=O)OCC)cn(C)c34)C[C@@H]2N1C(=O)NCc1ccccc1 [Compound F-55]
7.8 | C=CCN1CC(=O)N2[C@@H](Cc3ccc(O)cc3)C(=O)N(Cc3cccc4c(C(=O)N(C)CCN5CCN(C)CC5)cn(C)c34)C[C@@H]2N1C(=O)NCc1ccccc1 [Compound F-28]
2.89 | C=CCN1CC(=O)N2[C@@H](Cc3ccc(O)cc3)C(=O)N(Cc3cccc4c(C(=O)N(CCO)CCNCCO)cn(C)c34)C[C@@H]2N1C(=O)NCc1ccccc1 [Compound F-20]
4.78 | C=CCN1CC(=O)N2[C@@H](Cc3ccc(O)cc3)C(=O)N(Cc3cccc4c(C(=O)NN5CCCCC5)cn(C)c34)C[C@@H]2N1C(=O)NCc1ccccc1 [Compound F-57]
5.12 | C=CCN1CC(=O)N2[C@@H](Cc3ccc(O)cc3)C(=O)N(Cc3cccc4c(C(=O)NC5CCN(C(C)=O)CC5)cn(C)c34)C[C@@H]2N1C(=O)NCc1ccccc1 [Compound F-64]
3.64 | C=CCN1CC(=O)N2[C@@H](Cc3ccc(O)cc3)C(=O)N(Cc3cccc4c(C(=O)NCCN(CC)CC)cn(C)c34)C[C@@H]2N1C(=O)NCc1ccccc1 [Compound F-14]
5.35 | C=CCN1CC(=O)N2C(Cc3ccc(O)cc3)C(=O)N(Cc3cccc4c(C(=O)Nc5ccc(N(CCN(CC)CC)CCN(CC)CC)nc5)cn(C)c34)CC2N1C(=O)NCc1ccccc1 (centres unmarked) [Compound G-26]
3.16 | C=CCN1CC(=O)N2[C@@H](Cc3ccc(O)cc3)C(=O)N(Cc3cccc4c(C(=O)N(C)C)cn(C)c34)C[C@@H]2N1C(=O)NCc1ccccc1 [Compound F-1]
2.97 | C=CCN1CC(=O)N2[C@@H](Cc3ccc(O)cc3)C(=O)N(Cc3cccc4c(C(=O)Nc5ccc(F)nc5)cn(C)c34)C[C@@H]2N1C(=O)NCc1ccccc1 [Compound G-1]
6.8 | C=CCN1CC(=O)N2[C@@H](Cc3ccc(O)cc3)C(=O)N(Cc3cccc4c(C(=O)NNc5ccccc5)cn(C)c34)C[C@@H]2N1C(=O)NCc1ccccc1 [Compound F-60]
